According to patent US20130018023A1, “COMPOSITIONS FOR TOPICAL ADMINISTRATION” (SOL-GEL TECHNOLOGIES LTD., priority 2010, published 2013):

Experiments:
[1] = system: VRE; test: MIC determination, macrodilution method; format: cell-based, Vancomycin-Restistant Enterococcus faecali (ATCC 115992)
Source text: (§1) Methicillin-resistant Staphylococcus aureus (ATCC 33592) Coagualse Negative Staphylococcus epidermidis (Clinical Isolate) Vancomycin-Restistant Enterococcus faecali (ATCC 115992) Escherischia coli (ATCC 25922) Candida albicans (ATCC 10231)
(§2) Muller Hinton Broth (MHB) was used in this study for all bacteria: BD Cat #211443, Lot numbers 9097650.
(§3) 1. The test organism, (bacteria or yeast) was obtained from frozen cultures. 2. Two days prior to the experiment, a portion of test bacterium from frozen culture collection was streaked and cultured on a non-selective agar plate (e.g. TSA). Plates were then incubated overnight at 37° C.±1° C. and the culture was examined for purity prior to use. […] 3. The day prior to the experiment, a portion of test organism was inoculated from the above-mentioned plate into MHB and vortexed. Incubate at 37° C.±1° C. for approximately eighteen hours. 4. For Candida albicans (ATCC 10231): The day prior to the experiment a portion of test organism was inoculated from the above-mentioned plate into Yeast/Dextrose Broth and vortexted. Bacterial MIC determination was conducted according to Kirby-Bauer macrodilution method. The bacterial/yeast density was adjusted to approximately 10^7 CFU/m; (Approx OD625 0.1±0.05). […]

[2] = system: C. albicans (yeast); test: MIC determination, macrodilution method; format: cell-based, Candida albicans (ATCC 10231)
Source text: as §1
(§4) Muller Hinton Agar (MHA) was used in this study for all bacteria: BD Cat #211438, Lot number 7155220. Yeast Dextrose Broth (Y/D B) was used to test C. albicans Yeast Dextrose Broth contains 10 g/L of yeast extract and 10 g/L of dextrose. Yeast Extract Cat #BD 210933, Lot number 8074851 (Expiration 2010-01-31). Dextrose Cat # BD215530 (Lot Number 6163169). Yeast Dextrose Agar (Y/D A) was used to test C. albicans Yeast Dextrose Agar contains 10 g/L of yeast extract and 10 g/L of dextrose and 17 g/L Agar. Agar Cat # BD 214010 (Lot Number 214010).
1. The test organism, (bacteria or yeast) was obtained from frozen cultures. 2. Two days prior to the experiment, a portion of test bacterium from frozen culture collection was streaked and cultured on a non-selective agar plate (e.g. TSA). Plates were then incubated overnight at 37° C.±1° C. and the culture was examined for purity prior to use. […] 3. The day prior to the experiment, a portion of test organism was inoculated from the above-mentioned plate into MHB and vortexed. Incubate at 37° C.±1° C. for approximately eighteen hours. 4. For Candida albicans (ATCC 10231): The day prior to the experiment a portion of test organism was inoculated from the above-mentioned plate into Yeast/Dextrose Broth and vortexted. Bacterial MIC determination was conducted according to Kirby-Bauer macrodilution method. The bacterial/yeast density was adjusted to approximately 10^7 CFU/m; (Approx OD625 0.1±0.05). Stock solutions of each test article or combination were made by adding each test article to MHB to give an MHB/test article mixture of the following concentrations: Benzoyl Peroxide=6% in MHB and Mupiocin=256 μg/mL in MHB.
For bacterial: Mupirocin=256 μg/mL & BP at 0.0469% in MHB For yeast: Mupirocin=256 μg/mL & BP at 0.0115% in MHB […]

[3] = system: Staph epidermidis; test: MIC determination, macrodilution method; format: cell-based
Source text: as §1, §2, §3

[4] = system: MRSA; test: MIC determination, macrodilution method; format: cell-based, Methicillin-resistant Staphylococcus aureus (ATCC 33592)
Source text: as §1, §2, §3

[5] = system: E. Coli; test: MBC determination, sub-culturing from MIC tubes; format: cell-based, Escherischia coli (ATCC 25922); details: Escherichia coli, value as mupirocin concentration, read-out: Mupirocin MBC & MFC
Source text: as §1, §4
(§5) 1. The test organism, (bacteria or yeast) was obtained from frozen cultures. 2. Two days prior to the experiment, a portion of test bacterium from frozen culture collection was streaked and cultured on a non-selective agar plate (e.g. TSA). Plates were then incubated overnight at 37° C.±1° C. and the culture was examined for purity prior to use. […] 3. The day prior to the experiment, a portion of test organism was inoculated from the above-mentioned plate into MHB and vortexed. Incubate at 37° C.±1° C. for approximately eighteen hours. 4. […]

[6] = system: Staph epidermidis; test: MBC determination, sub-culturing from MIC tubes; format: cell-based; details: Staphylococcus epidermidis, mupirocin alone, read-out: Mupirocin MBC & MFC
Source text: as §1, §4, §5

[7] = system: Staph organisms; test: Cidal activity (MBC) against Staph organisms; format: cell-based, Staphylococcus
Procedure: Bacterial MBC determination was conducted according to Kirby-Bauer macro-dilution method. […] The tubes were incubated for approximately 24 h at 37° C.±1° C. and then scored for their MBC.

[8] = system: C. albicans (yeast); test: MBC & MFC determination, sub-culturing from MIC tubes; format: cell-based, Candida albicans (ATCC 10231); details: Candida albicans, value as mupirocin concentration
Source text: as §1, §4, §5

[9] = system: MRSA; test: MBC determination, sub-culturing from MIC tubes; format: cell-based, Methicillin-resistant Staphylococcus aureus (ATCC 33592); details: Staphylococcus aureus, mupirocin alone, read-out: Mupirocin MBC & MFC
Source text: as §1, §4, §5

[10] = system: VRE; test: MBC determination, sub-culturing from MIC tubes; format: cell-based, Vancomycin-Restistant Enterococcus faecali (ATCC 115992); details: Enterococcus, value as mupirocin concentration, read-out: Mupirocin MBC & MFC
Source text: as §1, §4, §5

[11] = system: E. Coli; test: MIC determination, macrodilution method; format: cell-based, Escherischia coli (ATCC 25922); details: Escherichia coli, MHB, approx. 24 h at 37° C., value as mupirocin concentration, combination starts at BP 0.0469%
Source text: as §1, §2, §3

BPO in DMSO MIC ([1]; BPO alone dissolved in DMSO) | BPO in DMSO MIC ([2]; C. albicans, BPO alone dissolved in DMSO) | BPO in DMSO MIC ([3]; BPO alone dissolved in DMSO) | BPO in DMSO MIC ([4]; BPO alone dissolved in DMSO) | Compound | MIC ([1]; Enterococcus, MHB, approx. 24 h at 37° C., value as mupirocin concentration, combination starts at BP 0.0469%) [µg/mL] | MBC [5] [µg/mL] | MIC ([2]; Candida albicans, C. albicans, approx. 24 h at 37° C., value as mupirocin concentration, combination starts at BP 0.0115%) [µg/mL] | Efficacy against the yeast C. albicans (in words) ([2]; at the concentrations tested) | MBC [6] [µg/mL] | Cidal activity against Staph organisms (in words) [7] | MBC [8] [µg/mL] | MIC ([3]; Staphylococcus epidermidis, MHB, approx. 24 h at 37° C., value as mupirocin concentration, combination starts at BP 0.0469%) [µg/mL] | MIC ([4]; Staphylococcus aureus, MHB, approx. 24 h at 37° C., value as mupirocin concentration, combination starts at BP 0.0469%) [µg/mL] | MBC [9] [µg/mL] | MBC [10] [µg/mL] | MIC [11] [µg/mL]
0.1875% (0.78%) | 0.046% (0.19%) | 0.1875% (0.78%) | 0.1875% (0.78%) | O=C(OOC(=O)c1ccccc1)c1ccccc1 [BPO, Benzoyl peroxide] |  |  |  |  |  |  |  |  |  |  |  | 
 |  |  |  | C/C(=C\C(=O)OCCCCCCCCC(=O)O)C[C@@H]1OC[C@H](C[C@@H]2O[C@H]2[C@@H](C)[C@H](C)O)[C@@H](O)[C@H]1O [Mupirocin] | 64 | > 256 | > 256 | ineffective | 32 | Cidal activity | > 256 | 1 | 1 | 32 | > 256 | 64
